This note sets out measurements from ChEMBL document CHEMBL1221248, “Synthesis and SAR of (piperazin-1-yl-phenyl)-arylsulfonamides: a novel series of atypical antipsychotic agents” (Bioorg Med Chem Lett, 2010).

For assay [1], the target named is T1, 5-hydroxytryptamine receptor 2C (Homo sapiens, UniProt P28335).
T1 sequence (P28335 whole entry): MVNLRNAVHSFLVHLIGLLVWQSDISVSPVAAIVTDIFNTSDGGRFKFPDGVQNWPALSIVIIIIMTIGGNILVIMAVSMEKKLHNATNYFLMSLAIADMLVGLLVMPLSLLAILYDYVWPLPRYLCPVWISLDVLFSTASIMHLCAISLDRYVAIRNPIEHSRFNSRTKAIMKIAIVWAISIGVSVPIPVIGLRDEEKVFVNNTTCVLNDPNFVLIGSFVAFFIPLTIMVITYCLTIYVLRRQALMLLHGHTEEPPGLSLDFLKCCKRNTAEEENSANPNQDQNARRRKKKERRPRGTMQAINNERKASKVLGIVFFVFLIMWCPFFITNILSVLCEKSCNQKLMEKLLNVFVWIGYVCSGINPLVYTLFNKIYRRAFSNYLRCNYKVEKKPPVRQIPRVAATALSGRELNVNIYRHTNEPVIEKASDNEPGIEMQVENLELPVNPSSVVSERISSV
As to the kind of experiment: Displacement of [3H]mesulergine from human 5HT2C expressed in CHOKI cells. The format is cell-based. (In general: Loss of bound radioactivity is the signal in a displacement assay; it reports binding, not function.)

A further assay has as its target D(2) dopamine receptor (Homo sapiens, UniProt P14416). As to the kind of experiment: Displacement of [3H]spiperone from human dopamine D2 expressed in CHOKI cells. The format is cell-based.
The target in assay [2] is T2, 5-hydroxytryptamine receptor 1A (Homo sapiens, UniProt P08908).
T2 sequence (P08908 whole entry): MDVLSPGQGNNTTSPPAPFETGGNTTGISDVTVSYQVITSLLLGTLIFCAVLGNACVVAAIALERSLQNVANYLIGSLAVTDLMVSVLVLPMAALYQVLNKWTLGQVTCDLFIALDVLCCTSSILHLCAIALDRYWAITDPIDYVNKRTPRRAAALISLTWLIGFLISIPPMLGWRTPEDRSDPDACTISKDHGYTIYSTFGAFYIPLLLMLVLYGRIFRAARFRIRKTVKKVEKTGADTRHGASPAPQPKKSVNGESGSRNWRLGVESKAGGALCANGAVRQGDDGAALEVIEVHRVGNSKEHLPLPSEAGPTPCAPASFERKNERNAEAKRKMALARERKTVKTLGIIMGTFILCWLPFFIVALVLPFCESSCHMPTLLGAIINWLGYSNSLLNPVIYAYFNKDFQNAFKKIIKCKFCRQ
Kind of assay: Displacement of [3H]8-OH-DPAT from human 5HT1A expressed in CHOKI cells. The format is cell-based.

The target in a further assay is T3, D(4) dopamine receptor (Homo sapiens, UniProt P21917).
T3 sequence (P21917 whole entry): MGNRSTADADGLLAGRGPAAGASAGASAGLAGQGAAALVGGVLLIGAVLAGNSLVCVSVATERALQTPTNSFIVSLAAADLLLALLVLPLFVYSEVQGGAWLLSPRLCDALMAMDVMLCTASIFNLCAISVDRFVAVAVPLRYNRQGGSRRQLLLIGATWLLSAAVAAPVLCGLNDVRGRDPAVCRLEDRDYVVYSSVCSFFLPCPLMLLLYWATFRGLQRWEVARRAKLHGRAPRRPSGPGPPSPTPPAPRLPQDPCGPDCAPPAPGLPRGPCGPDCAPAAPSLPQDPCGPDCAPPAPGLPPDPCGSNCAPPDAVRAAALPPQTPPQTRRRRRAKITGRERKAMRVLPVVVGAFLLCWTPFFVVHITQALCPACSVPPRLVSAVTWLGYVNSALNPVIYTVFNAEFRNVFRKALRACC
As to the kind of experiment: Displacement of [3H]spiperone from human dopamine D4 receptor expressed in CHOKI cells. The class given is cell-based.

The target of assay [3] is 5-hydroxytryptamine receptor 7 (Homo sapiens, UniProt P34969). As to the kind of experiment: Displacement of [3H]LSD from human 5HT7 expressed in CHOKI cells. The class given is cell-based.
Assay [4] concerns the target 5-hydroxytryptamine receptor 2A (Homo sapiens, UniProt P28223). As to the kind of experiment: Displacement of [3H]ketanserin from human 5HT2A expressed in CHOKI cells. The format is cell-based.
The next assay has as its target D(3) dopamine receptor (Homo sapiens, UniProt P35462). As to the kind of experiment: Displacement of [3H]spiperone from human dopamine D3 receptor expressed in CHOKI cells. The format is cell-based.
Assay [5] concerns the target 5-hydroxytryptamine receptor 6 (Homo sapiens, UniProt P50406). As to the kind of experiment: Displacement of [3H]LSD from human 5HT6 receptor expressed in HEK293 cells. The format is cell-based.
For assay [6], the species on record is Homo sapiens. As to the kind of experiment: Selectivity ratio of IC50 for human dopamine D3 to IC50 for human 5HT2C.
The species named for assay [7] is Homo sapiens. Kind of assay: Selectivity ratio of IC50 for human dopamine D4 to IC50 for human 5HT6 receptor.
The species named for assay [8] is Homo sapiens. As to the kind of experiment: Selectivity ratio of IC50 for human dopamine D3 to IC50 for human 5HT6 receptor.
Assay [9] concerns the target Serotonin 2 receptors; 5-HT2a & 5-HT2c (Homo sapiens) (UniProt P28223+P28335). Kind of assay: Selectivity ratio of IC50 for human 5HT2A to IC50 for human 5HT2C.
The species entered for assay [10] is Homo sapiens. Kind of assay: Selectivity ratio of IC50 for human 5HT1A to IC50 for human 5HT6 receptor.
The species entered for assay [11] is Homo sapiens. Kind of assay: Selectivity ratio of IC50 for human dopamine D2 to IC50 for human 5HT2C.
The species named for assay [12] is Homo sapiens. Kind of assay: Selectivity ratio of IC50 for human 5HT7 to IC50 for human 5HT6 receptor.
For assay [13], the species on record is Homo sapiens. As to the kind of experiment: Selectivity ratio of IC50 for human 5HT7 to IC50 for human 5HT2C.
The species entered for assay [14] is Homo sapiens. As to the kind of experiment: Selectivity ratio of IC50 for human dopamine D2 to IC50 for human 5HT6 receptor.
The species entered for assay [15] is Homo sapiens. Kind of assay: Selectivity ratio of IC50 for human 5HT1A to IC50 for human 5HT2C.
The species named for assay [16] is Homo sapiens. As to the kind of experiment: Selectivity ratio of IC50 for human dopamine D4 to IC50 for human 5HT2C.
Assay [17] is filed under the species Homo sapiens. As to the kind of experiment: Selectivity ratio of IC50 for human 5HT2A to IC50 for human 5HT6 receptor.

Sequence of D(3) dopamine receptor (P35462 whole entry): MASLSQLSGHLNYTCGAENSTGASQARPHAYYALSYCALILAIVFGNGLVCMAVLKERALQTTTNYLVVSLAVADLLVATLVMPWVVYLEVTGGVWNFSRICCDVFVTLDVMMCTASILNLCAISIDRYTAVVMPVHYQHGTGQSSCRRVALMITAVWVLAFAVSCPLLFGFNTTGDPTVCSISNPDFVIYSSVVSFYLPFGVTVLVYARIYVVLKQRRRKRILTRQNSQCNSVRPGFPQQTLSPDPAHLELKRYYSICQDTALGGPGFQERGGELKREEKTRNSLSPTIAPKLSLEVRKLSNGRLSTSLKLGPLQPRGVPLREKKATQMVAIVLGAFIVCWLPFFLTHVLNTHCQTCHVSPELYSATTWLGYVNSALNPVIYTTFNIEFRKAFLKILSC
Sequence of 5-hydroxytryptamine receptor 7 (P34969 whole entry): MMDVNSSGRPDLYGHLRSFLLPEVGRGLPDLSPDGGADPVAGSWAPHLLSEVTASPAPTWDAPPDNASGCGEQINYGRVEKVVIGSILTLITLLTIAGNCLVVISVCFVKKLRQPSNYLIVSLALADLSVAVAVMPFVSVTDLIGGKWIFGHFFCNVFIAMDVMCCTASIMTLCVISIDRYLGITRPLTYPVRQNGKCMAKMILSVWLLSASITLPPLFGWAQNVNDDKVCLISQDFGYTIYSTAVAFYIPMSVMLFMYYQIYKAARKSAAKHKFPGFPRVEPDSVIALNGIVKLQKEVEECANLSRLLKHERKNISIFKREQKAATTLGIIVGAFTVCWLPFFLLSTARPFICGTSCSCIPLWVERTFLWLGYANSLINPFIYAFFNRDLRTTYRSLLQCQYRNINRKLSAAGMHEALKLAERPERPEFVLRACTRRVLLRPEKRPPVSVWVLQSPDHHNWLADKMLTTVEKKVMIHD
Sequence of 5-hydroxytryptamine receptor 6 (P50406 whole entry): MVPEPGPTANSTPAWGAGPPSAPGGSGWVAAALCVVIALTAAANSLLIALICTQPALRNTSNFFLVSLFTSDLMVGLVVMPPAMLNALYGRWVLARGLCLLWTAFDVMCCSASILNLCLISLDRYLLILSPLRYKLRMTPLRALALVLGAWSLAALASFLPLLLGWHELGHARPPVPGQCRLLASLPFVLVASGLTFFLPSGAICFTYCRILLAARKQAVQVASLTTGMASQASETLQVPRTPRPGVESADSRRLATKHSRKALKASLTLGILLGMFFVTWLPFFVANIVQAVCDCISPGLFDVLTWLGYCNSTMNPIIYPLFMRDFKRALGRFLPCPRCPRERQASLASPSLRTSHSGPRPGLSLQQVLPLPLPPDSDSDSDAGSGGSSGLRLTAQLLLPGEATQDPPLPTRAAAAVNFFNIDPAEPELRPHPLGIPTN
Sequence of D(2) dopamine receptor (P14416 whole entry): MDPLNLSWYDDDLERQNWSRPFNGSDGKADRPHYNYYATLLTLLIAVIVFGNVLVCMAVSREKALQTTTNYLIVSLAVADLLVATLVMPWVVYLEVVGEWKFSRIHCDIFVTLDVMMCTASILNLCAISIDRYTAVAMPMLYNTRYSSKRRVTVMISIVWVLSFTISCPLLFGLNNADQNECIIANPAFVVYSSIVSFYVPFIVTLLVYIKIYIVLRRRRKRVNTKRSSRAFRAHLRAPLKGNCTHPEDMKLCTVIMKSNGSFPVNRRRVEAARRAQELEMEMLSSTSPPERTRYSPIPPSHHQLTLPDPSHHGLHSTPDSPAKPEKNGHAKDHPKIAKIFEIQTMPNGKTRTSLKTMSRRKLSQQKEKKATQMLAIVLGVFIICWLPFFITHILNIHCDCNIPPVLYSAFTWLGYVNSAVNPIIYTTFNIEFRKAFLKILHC
Sequence of 5-hydroxytryptamine receptor 2A (P28223 whole entry): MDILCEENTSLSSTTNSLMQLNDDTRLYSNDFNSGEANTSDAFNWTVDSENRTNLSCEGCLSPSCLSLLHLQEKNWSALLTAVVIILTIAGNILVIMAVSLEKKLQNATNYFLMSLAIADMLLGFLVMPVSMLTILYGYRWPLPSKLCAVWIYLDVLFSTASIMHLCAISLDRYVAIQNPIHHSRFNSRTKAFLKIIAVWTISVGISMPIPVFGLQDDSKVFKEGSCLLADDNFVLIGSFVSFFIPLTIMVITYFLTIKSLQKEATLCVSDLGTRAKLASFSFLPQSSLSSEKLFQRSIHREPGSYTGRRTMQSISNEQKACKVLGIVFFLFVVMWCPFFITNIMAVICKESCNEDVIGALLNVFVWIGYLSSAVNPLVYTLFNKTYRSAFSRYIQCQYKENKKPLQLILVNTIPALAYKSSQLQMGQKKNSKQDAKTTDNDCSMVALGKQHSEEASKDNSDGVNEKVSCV
Sequence of Serotonin 2 receptors; 5-HT2a & 5-HT2c (Homo sapiens) (P28223 whole entry, looked up, one chain of several): as the sequence (P28223 whole entry) above

Take `CC(C)N(C(=O)c1ccc(Cl)cc1)c1cccc(N2CCN(C)CC2)c1`: in [1], the IC50 (commonly the point on the concentration scale where inhibition reaches its midpoint) is 7700 nM.

As to `CC(C)N(c1cccc(N2CCN(C)CC2)c1)S(=O)(=O)c1cccc2ccccc12`, the concentration for half-maximal inhibition (IC50) was over 10000 nM at D(2) dopamine receptor; 298 nM in [2]; over 10000 nM on D(4) dopamine receptor; 2870 nM in [3]; 122 nM in assay [4]; 1200 nM on D(3) dopamine receptor. The results for the IC50 in [1] and in assay [5] were 100 nM and 16 nM, respectively.

Regarding `CC(C)N(C(=O)c1ccc2ccccc2c1)c1cccc(N2CCN(C)CC2)c1`, the concentration for half-maximal inhibition (IC50) in assay [1] was 420 nM.

As for `CCCN(c1cccc(N2CCN(C)CC2)c1)S(=O)(=O)c1ccc2ccccc2c1`, the IC50 at D(2) dopamine receptor is over 10000 nM; in [2], 3760 nM; at D(4) dopamine receptor it was over 10000 nM; in [3] it was 3860 nM; in assay [4], 389 nM; on D(3) dopamine receptor, 2510 nM. Also, the half-maximal inhibitory concentration (IC50) in [1] is 7 nM; in assay [5], 4 nM. Besides, the Ratio IC50 (in the assay listed under Homo sapiens [6]; in the assay filed under Homo sapiens [7]; in the assay listed under Homo sapiens [8]; in [9]; in the assay listed under Homo sapiens [10]; in the assay listed under Homo sapiens [11]) was over 25 each time. In addition, the Ratio IC50 in the assay listed under Homo sapiens [12], in the assay filed under Homo sapiens [13], in the assay filed under Homo sapiens [14], in the assay listed under Homo sapiens [15], in the assay listed under Homo sapiens [16] and in the assay listed under Homo sapiens [17] was over 25 throughout.

Consider `CC(C)N(c1cccc(N2CCN(C)CC2)c1)S(=O)(=O)c1ccc(Cl)cc1`, for which the IC50 in [1] was determined as 243 nM.

`CC(C)N(c1cccc(N2CCN(C)CC2)c1)S(=O)(=O)c1ccc([N+](=O)[O-])cc1` had an IC50 in assay [1] of 462 nM.

Regarding `CN1CCN(c2cccc(N(Cc3ccccc3)S(=O)(=O)c3ccc4ccccc4c3)c2)CC1`, the IC50 on D(2) dopamine receptor is over 10000 nM; in [2] it was 280 nM; on D(4) dopamine receptor it was over 10000 nM; in assay [3], 2040 nM; in [4] it was 50 nM; at D(3) dopamine receptor it was 943 nM. In addition, the IC50 in assay [1] was found to be 32 nM; in assay [5], 3 nM.

Take `CN1CCN(c2cccc(N(CC3CC3)S(=O)(=O)c3ccc4ccccc4c3)c2)CC1`: the 50% inhibitory concentration (IC50) is over 10000 nM on D(2) dopamine receptor; 672 nM in [2]; over 10000 nM on D(4) dopamine receptor; 3040 nM in assay [3]; 88 nM in assay [4]; 1430 nM at D(3) dopamine receptor. Further, the IC50 in [1] and in [5] was 6 nM each time.

In assay [1], `CC(C)N(Cc1ccccc1)c1cccc(N2CCN(C)CC2)c1` came in with an IC50 of over 10000 nM.

In turn, `CCC(CC)N(c1cccc(N2CCN(C)CC2)c1)S(=O)(=O)c1ccc2ccccc2c1` registered an IC50 in assay [1] of 159 nM.

For `CC(C)N(c1ccccc1N1CCN(C)CC1)S(=O)(=O)c1ccc2ccccc2c1`, the IC50 was 4640 nM in [1] and 2190 nM in [5].

On to `CN1CCN(c2cccc(NS(=O)(=O)c3ccc4ccccc4c3)c2)CC1`, for which the IC50 on D(2) dopamine receptor was over 10000 nM; in [2], 57 nM; on D(4) dopamine receptor, over 10000 nM; in assay [3], 1580 nM; in [4], 1620 nM; on D(3) dopamine receptor, 2100 nM. For the same molecule, the IC50 is 5150 nM in assay [1] and 13 nM in assay [5].

Regarding `CN1CCN(c2cccc(N(C)S(=O)(=O)c3ccc4ccccc4c3)c2)CC1`, the IC50 at D(2) dopamine receptor is over 10000 nM; in [2], 95 nM; on D(4) dopamine receptor, over 10000 nM; in assay [3], 4430 nM; in assay [4], 1420 nM; at D(3) dopamine receptor, 2420 nM. Further, the figures for the IC50 in [1] and in [5] were 36 nM and 7 nM, respectively.

As for `CC(C)N(C(=O)c1cccc2ccccc12)c1cccc(N2CCN(C)CC2)c1`, in [1], the IC50 was 97 nM.

`CN1CCN(c2cccc(N(Cc3cccnc3)S(=O)(=O)c3ccc4ccccc4c3)c2)CC1` showed an IC50 in assay [1] of 34 nM.

`CCN(c1cccc(N2CCN(C)CC2)c1)S(=O)(=O)c1ccc2ccccc2c1`: the IC50 on D(2) dopamine receptor was over 10000 nM; in assay [2], 485 nM; on D(4) dopamine receptor, over 10000 nM; in assay [3], 2060 nM; in assay [4], 218 nM; at D(3) dopamine receptor, 1170 nM. The values for the IC50 in assay [1] and in assay [5] were 16 nM and 3 nM, respectively.

With `CC(C)N(C(=O)c1ccccc1)c1cccc(N2CCN(C)CC2)c1`, in assay [1], the IC50 worked out at 4160 nM.

As for `CN1CCN(c2cccc(N(CC3CCCC3)S(=O)(=O)c3ccc4ccccc4c3)c2)CC1`, the IC50 in [1] was 11 nM.

Regarding `CC(C)N(c1ccc(Oc2cccnc2)nc1)S(=O)(=O)c1ccc2ccccc2c1`, the IC50 in assay [1] was over 10000 nM; in assay [5], 422 nM.

`Cc1ccc(S(=O)(=O)N(c2cccc(N3CCN(C)CC3)c2)C(C)C)cc1`: the IC50 in [1] came out at 106 nM.

As to `CC(C)N(c1cccc(I)c1)S(=O)(=O)c1ccc2ccccc2c1`, the results for the IC50 in [1] and in [5] were 467 nM and 1180 nM, respectively.

For `CCC(C)N(c1cccc(N2CCN(C)CC2)c1)S(=O)(=O)c1ccc2ccccc2c1` (configuration not stated), in assay [1], the IC50 is 168 nM.

On to `CC(C)N(c1cccc(N2CCN(C)CC2)c1)S(=O)(=O)c1ccccc1`, for which the IC50 was over 10000 nM at D(2) dopamine receptor; 3400 nM in assay [2]; over 10000 nM on D(4) dopamine receptor; 1010 nM in [3]; 172 nM in assay [4]; 2890 nM on D(3) dopamine receptor. The IC50 in assay [1] was 21 nM; in [5] it was 644 nM.

In turn, `CC(C)N(C(=O)Nc1ccccc1)c1cccc(N2CCN(C)CC2)c1` returned an IC50 in [1] of over 10000 nM.

Take `CC(C)N(c1ccc(N2CCN(C)CC2)cc1)S(=O)(=O)c1ccc2ccccc2c1`: the IC50 in assay [1] stood at 1720 nM; in [5], 27 nM.
